# Like-named read-outs stand apart in the source and are kept apart here.
# Legend:
# [1] = molecular target: T1, Recombinant Rhinovirus 3C protease (RVP) serotype-14 (Human rhinovirus 14, UniProt P03303); assay: Inhibition of Rhinovirus Protease (fluorescence resonance energy transfer assay), serotype 14; assay type: biochemical, human rhinovirus (HRV); conditions: for kobs/I: progress curves in enzyme start experiments; for kinact/KI: pH 7.6, read-out: kobs/I
# T1 construct: Recombinant Rhinovirus 3C proteases from serotypes 14, 16, 2 or 89; made in house
# [2] = molecular target: T2, Recombinant Rhinovirus 3C protease (RVP) serotype 16 (Human rhinovirus 16, UniProt Q82122); assay: Inhibition of Rhinovirus Protease (fluorescence resonance energy transfer assay), serotype 16; assay type: biochemical, human rhinovirus (HRV); conditions: RVP serotype 16, progress curves in enzyme start experiments; for kinact/KI: pH 7.6, read-out: kobs/I
# T2 construct: Recombinant Rhinovirus 3C proteases from serotypes 14, 16, 2 or 89; made in house
# Procedure: (§1) Stock solution (50 mM, in DMSO) of various compounds were prepared; dilutions were in the same solvent. Recombinant Rhinovirus 3C proteases from serotypes 14, 16, 2 or 89 were prepared by the following standard chromatographic procedures: (1) ion exchange using Q Sepharose Fast Flow from Pharmacia; (2) affinity chromatography using Affi-Gel Blue from Biorad; and (3) sizing using Sephadex G-100 from Pharmacia. Assays contained 2% DMSO, 50 mM tris pH 7.6, 1 mM EDTA, a compound at the indicated concentrations, approximately 1 μM substrate, and 50-100 nM protease. […] The kobs/I values were obtained from reactions initiated by addition of enzyme rather than substrate. RVP activity is measured in the fluorescence resonance energy transfer assay. The substrate was (N-terminal) DABCYL-([…]Gyl)-EDANS. In the uncleaved peptide, the EDANS fluorescence was quenched by the proximal DABCYL moeity. When the peptide was cleaved, the quenching was relieved, and activity was measured as an increase in fluorescence signal.
# (§2) In the above table, all data is RVP serotype-14 unless otherwise noted in parentheses. All strains of human rhinovirus (HRV) were purchased from American Type Culture Collection (ATCC), except for serotype 14, which was produced from the infectious cDNA clone constructed and supplied to us by Dr. Roland Rueckert at the Institute for Molecular Virology, University of Wisconsin, Madison, Wisc. […] The data in the column designated kobs/I was measured from progress curves in enzyme start experiments.
# [3] = molecular target: T3, Recombinant Rhinovirus 3C protease (RVP) serotype 2 (Human rhinovirus 2, UniProt P04936); assay: Inhibition of Rhinovirus Protease (fluorescence resonance energy transfer assay), serotype 2; assay type: biochemical, human rhinovirus (HRV); conditions: for kobs/I: progress curves in enzyme start experiments; for kinact/KI: pH 7.6, progress curves in enzyme start experiments, read-out: kobs/I
# T3 construct: Recombinant Rhinovirus 3C proteases from serotypes 14, 16, 2 or 89; made in house
# Procedure: as §1, §2
# HRV-14 = assay: Antirhinoviral HI-HeLa Cell Culture Assay (Cell Protection Assay, XTT dye reduction); assay type: cell-based, human rhinovirus (HRV) serotype-14
# How it was run: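 Protection measured via XTT dye reduction (450/650 nm) two days after compound treatment of HI-HeLa cells, mock-infected or infected with cDNA-derived HRV-14 at m.o.i. 0.13. CC50 divided by EC50 gives the therapeutic index.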
# HI-HeLa cells = assay: Cytotoxicity in mock-infected HI-HeLa cells (antirhinoviral assay, XTT); assay type: cell-based
# [4] = as above; assay type: cell-based; conditions: human; mock-infected HI-HeLa cells; two days; XTT; read-out: CC50
# [5] = HI-HeLa cells infected with HRV-14, m.o.i. 0.13, two days, XTT, read-out: EC50
# [6] = Rhinovirus B, HRV14, 48 h, HI-HeLa cells infected with HRV-14, m.o.i. 0.13, two days, XTT, read-out: EC50
# T2 sequence (Q82122 1511-1693): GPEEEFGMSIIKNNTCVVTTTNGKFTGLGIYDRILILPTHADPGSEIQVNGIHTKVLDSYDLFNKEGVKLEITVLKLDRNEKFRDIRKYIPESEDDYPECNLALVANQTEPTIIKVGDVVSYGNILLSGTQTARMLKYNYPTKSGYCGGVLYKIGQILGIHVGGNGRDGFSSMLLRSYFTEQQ
# T3 sequence (P04936 1508-1690): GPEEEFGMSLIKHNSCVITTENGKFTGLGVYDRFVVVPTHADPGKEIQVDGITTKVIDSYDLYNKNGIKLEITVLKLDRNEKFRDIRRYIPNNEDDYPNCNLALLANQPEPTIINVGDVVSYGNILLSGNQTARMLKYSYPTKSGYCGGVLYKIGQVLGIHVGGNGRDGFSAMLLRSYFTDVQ
# T1 sequence (P03303 1538-1719): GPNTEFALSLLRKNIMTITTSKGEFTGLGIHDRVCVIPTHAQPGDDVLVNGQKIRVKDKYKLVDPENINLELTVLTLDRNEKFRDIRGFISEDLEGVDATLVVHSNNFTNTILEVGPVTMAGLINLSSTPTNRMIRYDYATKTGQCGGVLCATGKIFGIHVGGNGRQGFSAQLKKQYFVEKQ
SMILES,kobs/I ([1]; RVP serotype-14),kobs/I [2],kobs/I [3],EC50 (HRV-14; [5]) [nM],CC50 (HI-HeLa cells) [nM],Ki [1] [nM],kinact/KI [1] [M⁻¹ s⁻¹],kinact/KI [2] [M⁻¹ s⁻¹],kinact/KI [3] [M⁻¹ s⁻¹],EC50 (HRV-14; [6]) [nM],CC50 at 2 days [4] [nM],"CC50 (HI-HeLa cells; mock-infected HI-HeLa cells, two days, XTT, read-out: CC50) [nM]","EC50 (HRV-14; Rhinovirus B, HRV14, 48 h) [nM]","Ki ([1]; RVP serotype-14, 10 minute preincubation, substrate start, read-out: INHIB (Ki)) [nM]"
CCOC(=O)/C=C/[C@H](CCC(N)=O)NC(=O)[C@H](Cc1ccc(OC)cc1)NC(=O)[C@H](CC(C)C)NC(=O)OCc1ccccc1 [Compound 103],"29,200 M-1 sec-1","3,354 M-1 sec-1","1,106 M-1 sec-1",1700,> 320000,–,–,–,–,–,–,–,–,–
CCOC(=O)/C=C/[C@H](CCC(N)=O)NC(=O)[C@H](Cc1ccccc1)NC(=O)[C@H](CC(C)C)NC(=O)SCc1ccccc1 [Compound 106],–,–,–,–,–,2000,280000,75000,28400,270,> 320000,–,–,–
CCOC(=O)/C=C/[C@H](CCC(N)=O)NC(=O)[C@H](Cc1ccccc1)NC(=O)[C@H](CC(C)C)NC(=O)SCC [Compound 120],–,–,–,–,–,6000,91300,20000,8900,460,> 320000,–,–,–
CCOC(=O)/C=C/[C@H](CCC(N)=O)NC(=O)[C@H](CC1CCCCC1)NC(=O)[C@H](CC(C)C)NC(=O)OCc1ccccc1 [Compound 135],"16,270 M-1 sec-1","3,465 M-1 sec-1",671 M⁻¹ s⁻¹,1900,–,–,–,–,–,–,–,> 320000,–,–
CCC[C@H](NC(=O)[C@H](CC(C)C)NC(=O)OCc1ccccc1)C(=O)N[C@H](/C=C/C(=O)OCC)CCC(N)=O [Compound 137],"2,344 M-1 sec-1","1,157 M-1 sec-1",643 M⁻¹ s⁻¹,224000,> 320000,–,–,–,–,–,–,–,–,–
CCOC(=O)/C=C/[C@H](CCC(N)=O)NC(=O)[C@H](Cc1ccc(CCO)cc1)NC(=O)[C@H](CC(C)C)NC(=O)OCc1ccccc1 [Compound 139],"43,140 M-1 sec-1","1,259 M-1 sec-1",691 M⁻¹ s⁻¹,3500,> 320000,–,–,–,–,–,–,–,–,–
CCOC(=O)/C=C/[C@H](CCC(N)=O)NC(=O)[C@H](Cc1ccccc1)NC(=O)[C@@H](NC(=O)OCc1ccccc1)C(C)C [Compound 146],"62,500 M-1 sec-1","16,900 M-1 sec-1","7,790 M-1 sec-1",380,> 320000,–,–,–,–,–,–,–,–,–
CCOC(=O)C=CC(CCC(N)=O)NC(=O)C(Cc1ccccc1)NC(=O)C(CCc1ccccc1)NC(=O)OCc1ccccc1 (stereo not shown) [Compound 148],–,–,–,–,–,–,57000,14800,8300,250,> 320000,–,–,–
CCOC(=O)/C=C/[C@H](CCC(N)=O)NC(=O)[C@H](Cc1ccccc1)NC(=O)[C@H](CO)NC(=O)OCc1ccccc1 [Compound 149],"39,940 M-1 sec-1","7,700 M-1 sec-1","2,840 M-1 sec-1",1780,> 320000,–,–,–,–,–,–,–,–,–
CCOC(=O)/C=C/[C@H](CCC(N)=O)NC(=O)[C@H](Cc1ccccc1)NC(=O)[C@H](CSc1ccccc1)NC(=O)OCc1ccccc1 [Compound 153],–,–,–,–,–,1400,141000,30600,13400,120,> 320000,–,–,–
CCOC(=O)/C=C/[C@H](CCC(N)=O)NC(=O)[C@H](Cc1ccccc1)NC(=O)[C@H](CCC(=O)O)NC(=O)OCc1ccccc1 [Compound 154],–,–,–,–,–,1100,78900,13900,5400,5500,> 320000,–,–,–
CCOC(=O)C=CC(CCC(N)=O)NC(=O)C(Cc1ccc(C)cc1)NC(=O)C(CC(C)C)NC(=O)OCc1ccccc1 (stereo not shown) [Compound 155],–,–,–,–,–,–,59400,5250,1390,–,> 320000,–,180,–
CCOC(=O)/C=C/[C@H](CCC(N)=O)NC(=O)[C@H](Cc1ccccc1)NC(=O)[C@H](Cc1ccccc1)NC(=O)OCc1ccccc1 [Compound 157],–,–,–,–,–,6000,162000,30800,9700,560,> 320000,–,–,–
CCOC(=O)/C=C/[C@H](CCC(N)=O)NC(=O)[C@H](Cc1ccccc1)NC(=O)[C@H](CC(=O)N(C)C)NC(=O)OCc1ccccc1 [Compound 158],"22,600 M-1 sec-1","6,400 M-1 sec-1","2,200 M-1 sec-1",5900,> 320000,–,–,–,–,–,–,–,–,17000
CCOC(=O)/C=C/[C@H](CCC(N)=O)NC(=O)[C@H](Cc1ccccc1)NC(=O)[C@H](CC(=O)O)NC(=O)OCc1ccccc1 [Compound 159],–,–,–,–,–,500,35000,6500,2500,2400,> 320000,–,–,–
CCOC(=O)/C=C/[C@H](CCC(N)=O)NC(=O)[C@H](Cc1ccccc1)NC(=O)[C@H](Cc1ccccc1)NC(=O)SCc1ccccc1 [Compound 161],"1,086,000 M-1 sec-1","126,000 M-1 sec-1","200,000 M-1 sec-1",170,> 100000,–,–,–,–,–,–,–,–,–
CCOC(=O)/C=C/[C@H](CCC(N)=O)NC(=O)[C@H](Cc1ccccc1)NC(=O)[C@H](CCc1ccccc1)NC(=O)SCc1ccccc1 [Compound 162],"800,000 M-1 sec-1","80,000 M-1 sec-1","150,000 M-1 sec-1",320,> 100000,–,–,–,–,–,–,–,–,–
CCOC(=O)/C=C/[C@H](CCC(N)=O)NC(=O)[C@H](Cc1ccccc1)NC(=O)[C@H](CSCc1ccccc1)NC(=O)OCc1ccccc1 [Compound 165],"97,000 M-1 sec-1","20,200 M-1 sec-1","5,600 M-1 sec-1",200,> 100000,–,–,–,–,–,–,–,–,–
CCOC(=O)/C=C/[C@H](CCC(N)=O)NC(=O)[C@H](Cc1ccccc1)NC(=O)[C@H](C[S+]([O-])Cc1ccccc1)NC(=O)OCc1ccccc1 (stereo partly shown) [Compound 166],"40,900 M-1 sec-1","7,700 M-1 sec-1","3,500 M-1 sec-1",5600,> 100000,–,–,–,–,–,–,–,–,–
"CCOC(=O)/C=C/[C@H](CCC(N)=O)NC(=O)[C@H](Cc1ccccc1)NC(=O)[C@@H](NC(=O)SCC)C(C)(C)C [Compound 167, Ethyl-3-[Ethylthiocarbonyl-L-α-(t-Butyl-Gly)-L-Phe-L-Gln]-E-Propenoate]","165,400 M-1 sec-1","42,100 M-1 sec-1","10,700 M-1 sec-1",83,> 100000,–,–,–,–,–,–,–,–,–
CCOC(=O)/C=C/[C@H](CCC(N)=O)NC(=O)[C@H](Cc1ccccc1)NC(=O)[C@H](CC(C)C)NC(=O)SC(C)C [Compound 170],"85,300 M-1 sec-1","30,000 M-1 sec-1","8,400 M-1 sec-1",200,> 100000,–,–,–,–,–,–,–,–,–
CCOC(=O)/C(C)=C/[C@H](CCC(N)=O)NC(=O)[C@H](Cc1ccccc1)NC(=O)[C@H](CC(C)C)NC(=O)SC(C)C [Compound 171],"21,200 M-1 sec-1","3,250 M-1 sec-1",830 M⁻¹ s⁻¹,710,> 100000,–,–,–,–,–,–,–,–,–
CCOC(=O)C=CC(CCC(N)=O)NC(=O)C(Cc1ccccc1)NC(=O)C(NC(=O)OCc1ccccc1)C(C)CC (stereo not shown) [Compound 172],"31,700 M-1 sec-1","6,000 M-1 sec-1","2,000 M-1 sec-1",790,> 100000,–,–,–,–,–,–,–,–,–
"CCOC(=O)/C=C/[C@H](CCC(N)=O)NC(=O)[C@H](Cc1ccccc1)NC(=O)[C@H](CSc1ccccc1)NC(=O)SC1CCCC1 [Compound 173, Ethyl-3-[Cyclopentylthiocarbonyl-L-(S-Ph-Cys)-L-Phe-L-Gln]-E-Propenoate]","1,000,000 M-1 sec-1","185,000 M-1 sec-1","113,000 M-1 sec-1",80,> 100000,–,–,–,–,–,–,–,–,–

# — patent US6362166B1, “Antipicornaviral compounds and methods for their use and preparation” (Agouron Pharmaceuticals, Inc., priority 1996, dated 2002)
